# Results published in patent US20190308956A1, “PIPERAZINE DERIVATIVES AS ANTIVIRAL AGENTS WITH INCREASED THERAPEUTIC ACTIVITY” (SERVICIO ANDALUZ DE SALUD, priority 2016, published 2019).
# Columns and labels:
# HAdV5-GFP [1] = assay: Plaque assay, HAdV5-GFP in 293β5 cells; type: cell-based; settings: for inhibition at 10 µM: read-out: Percentage of plaque formation inhibition, HAdV5-GFP, 10 μM, 293β5 cell line
# Description: 1.5. Plaque assay. For low MOI infections, active compounds were further evaluated in a plaque assay. 293β5 cells were seeded in 6-well plates at 4×10^5 cells per well in duplicate for each condition. When cells reached 80-90% confluency, they were infected with HAdV5-GFP or HAdV16-GFP (0.06 vp/cell) and rocked for 2 h at 37° C. The inoculum was removed and the cells were washed once with PBS. The cells were then carefully overlaid with 4 ml/well of equal parts of 1.6% […] Difco Agar Noble (Becton, Dickinson & Co, Sparks, MD) and 2× EMEM (BioWhittaker) supplemented with 2x penicillin/streptomycin, 2× L-glutamine and 10% FBS. The mixture also contained compound in concentrations ranging from 5 to 1 μM. Following incubation for 7 days at 37° C., plates were scanned with a Typhoon 9410 imager (GE Healthcare Life Sciences), and plaques were quantified with ImageJ.43
# For the plaque assay 293β5 cells were infected with HAdV5-GFP (in the presence of compound at 10 μM) (Table 2). From this generation of compounds, our primary screening identified 4 compounds (12, 13, 22 and 25) that inhibited HAdV5-GFP plaque formation >90% compared to a control with the same volume of DMSO.
# [2] = system: Acinetobacter baumannii strains resistant to colistine; assay: Screening of inhibition of bacterial growth at 50 μM; type: cell-based; settings: 5×10^5 CFU/ml, 18 h
# Text: (§1) All of the strains used were Acinetobacter baumannii strains resistant to colistine: Resistance (R)≥4 Sensibility (S)≤2—All of these strains have been disclosed in Valencia R, Arroyo L A, Conde M, Aldana J M, Torres M J, Fernandez-Cuenca F, et al. Nosocomial outbreak of infection with pan-drug-resistant Acinetobacter baumannii in a tertiary care university hospital. Infection control and hospital epidemiology. 2009; 30(3):257-63. The specific strains used were the following: 1, 10, 11, 14, 16, 17, 19, 20, 21R, 22P, 24, 99 and 113.
# Evaluation of the inhibition of the bacterial growth of the 4 families of piperazines derivatives was performed by using a final concentration of 50 μM of each piperazine derivative in a concentration of 5×10^5 CFU/ml of each strain of A. baumannii in 96-well plates.
# These plates were incubated for 18 hours at 37° C.
# [3] = system: Acinetobacter baumannii strains resistant to colistine; assay: Minimal inhibitory concentration (MIC), microdilution in MHBII; type: cell-based; settings: 5×10^5 CFU/ml, 18 h
# Text: as §1
# Microdilution in cell medium Mueller Hinton Broth II (MHBII). This technique was carried out solely in those piperazines which presented inhibitory activity in the screening study.
# We used decreasing concentrations of each piperazine derivative (from 50 μM -0.05 μM) in a concentration of 5×10^5 CFU/ml of each strain of A. baumannii in 96 well plates. These plates were incubated for 18 hours at a temperature 37° C.
# HAdV5-GFP [4] = assay: Entry assay, HAdV5-GFP in A549 cells (GFP expression); type: cell-based
# Description: 1.3. Entry assay. An initial rapid screening was performed using human A549 epithelial cells (3×10^5 cells/well in Corning black wall, clear bottom 96-well plates) infected with HAdV5-GFP (2,000 vp/cell) in the presence of 50 μM of the candidate antiviral compounds. Virus was preincubated with the compounds (individual and mixed) for 45 minutes at 4° C., and then added to cells. A standard infection curve was generated in parallel by infecting cells in the absence of compounds using serial two-fold dilutions of virus. All reactions were done in triplicate. Cells, virus and compounds were incubated for 48 h at 37° C. and 5% CO2. Infection, as measured by HAdV-mediated GFP expression, was analyzed using a Typhoon 9410 imager (GE Healthcare Life Sciences), and quantified with ImageQuantTL (GE Healthcare Life Sciences).
# [5] = Cytotoxicity assay (alamarBlue cell viability); type: cell-based, Human; settings: human, A549 cells
# Description: 1.4. Cytotoxicity assay. The cytotoxicity of the compounds was measured using the AlarmBlue cell viability assay (Invitrogen) according to the manufacturer's instructions. Actively dividing A549 cells were incubated with compounds for 48 h. After the incubation the alamarBlue reagent was added to the cells ( 1/10th alamarBlue reagent in culture medium) for an extra 4 h. The 50% cell cytotoxic concentration (CC50) of the molecules was calculated according to Cheng et al.42 The selectivity index (SI) was evaluated as the ratio of CC50 to IC50, where the IC50 is defined as the concentration of compound that inhibits HAdV infection by 50%.
structure (smiles),measurement,setting,value
"CC1CN(C(=O)OC(C)(C)C)CCN1C(=O)c1ccc([N+](=O)[O-])cc1 (stereo not shown) [Compound 10, 4-tert-Butoxycarbonyl-2-methyl-1-(4-nitrobenzoyl)piperazine]",inhibition at 10 µM,HAdV5-GFP [1],33.6 ± 2.17%
same,melting point,,115 to 117 °C
CC1CN(C(=O)OC(C)(C)C)CCN1C(=S)Nc1ccc(C(F)(F)F)cc1 (stereo not shown) [Vip 604],"Screening, growth inhibition Ab 21R","[2]; strain Ab 21R, 50 μM",<50 µM
same,"Screening, growth inhibition Ab 22P","[2]; strain Ab 22P, 50 μM",<50 µM
same,"Screening, growth inhibition Ab 24","[2]; strain Ab 24, 50 μM",<50 µM
same,CMI (MIC) Ab 21R,"[3]; strain Ab 21R, MHBII",25 µM
same,CMI (MIC) Ab 22P,"[3]; strain Ab 22P, MHBII",25 µM
same,CMI (MIC) Ab 24,"[3]; strain Ab 24, MHBII",25 µM
same,Inhibition assay in plaque,HAdV5-GFP [1],73.43 ± 22.49
same,Starting Inhibition assay,HAdV5-GFP [4],43.24 ± 17.18
"CC1CN(C(=O)c2cc3ccccc3o2)CCN1C(=O)Nc1ccc(F)cc1F (stereo not shown) [Compound 39, 4-(Benzofuran-2-carbonyl)-1-[(2,4-difluorophenyl)aminocarbonyl]-2-methylpiperazine]",inhibition at 10 µM,HAdV5-GFP [1],34.2 ± 13.6%
same,melting point,,163 to 165 °C
"CC1CN(C(=O)c2cc3ccccc3o2)CCN1C(=O)Nc1ccccc1F (stereo not shown) [Compound 37, 4-(Benzofuran-2-carbonyl)-1-[(2-fluorophenyl)aminocarbonyl]-2-methylpiperazine]",inhibition at 10 µM,HAdV5-GFP [1],50.9 ± 4.13%
same,melting point,,127 to 129 °C
"CC(C)(C)C(=O)N1CCN(C(=O)Nc2ccc(C#N)cc2)C(c2ccccc2)C1 (stereo not shown) [Compound 57, 1-[(4-Cyanophenyl)aminocarbonyl]-2-phenyl-4-pivaloylpiperazine]",inhibition at 10 µM,HAdV5-GFP [1],84 ± 6.75%
same,melting point,,151 to 153 °C
same,CC50 at 48 h,[5]; 48 h,147 ± 38 µM
"COc1ccc(NC(=O)N2CCN(C(=O)c3cc4ccccc4o3)CC2C)cc1 (stereo not shown) [Compound 26, 4-(Benzofuran-2-carbonyl)-1-[(4-methoxyphenyl)aminocarbonyl]-2-methylpiperazine]",inhibition at 10 µM,HAdV5-GFP [1],33.6 ± 14.7%
same,melting point,,170 to 172 °C
"COc1ccc(NC(=O)N2CCN(C(=O)C(C)(C)C)CC2c2ccccc2)cc1 (stereo not shown) [Compound 58, 1-[(4-Methoxyphenyl)aminocarbonyl]-2-phenyl-4-pivaloylpiperazine]",inhibition at 10 µM,HAdV5-GFP [1],70.1 ± 2.7%
same,melting point,,62 to 65 °C
same,CC50 at 48 h,[5]; 48 h,199 ± 33.6 µM
"CC1CN(C(=O)c2ccccc2)CCN1C(=O)c1ccc([N+](=O)[O-])cc1 (stereo not shown) [Compound 20, 4-Benzoyl-2-methyl-1-(4-nitrobenzoyl)piperazine]",inhibition at 10 µM,HAdV5-GFP [1],0%
same,melting point,,103 to 105 °C
"CC1CN(C(=O)OC(C)(C)C)CCN1C(=O)Nc1ccccc1[N+](=O)[O-] (stereo not shown) [Compound 29, 4-tert-Butoxycarbonyl-2-methyl-1-[(2-nitrophenyl)aminocarbonyl]piperazine]",inhibition at 10 µM,HAdV5-GFP [1],50 ± 2.75%
same,melting point,,199 to 201 °C
"CC1CN(C(=O)OC(C)(C)C)CCN1C(=O)Nc1cc(C(F)(F)F)ccc1Cl (stereo not shown) [Compound 30, 4-tert-Butoxycarbonyl-1-[(2-chloro-5-trifluoromethylphenyl)aminocarbonyl]-2-methylpiperazine]",inhibition at 10 µM,HAdV5-GFP [1],91 to 100%
same,melting point,,98 to 100 °C
same,CC50 at 48 h,[5]; 48 h,63.5 ± 8.22 µM
"COc1ccc(C(=O)N2CCN(C(=O)OC(C)(C)C)CC2C)cc1 (stereo not shown) [Compound 11, 4-tert-Butoxycarbonyl-1-(4-methoxybenzoyl)-2-methylpiperazine]",inhibition at 10 µM,HAdV5-GFP [1],33.8 ± 4.02%
same,melting point,,84 to 87 °C
"COc1ccc(C(=O)N2CCN(C(=O)C(C)(C)C)CC2C)cc1 (stereo not shown) [Compound 16, 1-(4-Methoxybenzoyl)-2-methyl-4-pivaloylpiperazine]",inhibition at 10 µM,HAdV5-GFP [1],0%
same,melting point,,96 to 97 °C
"CC1CN(C(=O)c2cc3ccccc3o2)CCN1C(=O)Nc1ccc(F)cc1 (stereo not shown) [Compound 35, 4-(Benzofuran-2-carbonyl)-1-[(4-fluorophenyl)aminocarbonyl]-2-methylpiperazine]",inhibition at 10 µM,HAdV5-GFP [1],91 to 100%
same,melting point,,93 to 95 °C
same,CC50 at 48 h,[5],> 200 µM
same,CC50 at 48 h,[5]; 48 h,221 ± 29 µM
"O=C(c1cc2ccccc2o1)N1CCN(C(=O)Nc2ccc(C(F)(F)F)cc2)C(c2ccccc2)C1 (stereo not shown) [Compound 61, 4-(Benzofuran-2-carbonyl)-2-phenyl-1-[(4-trifluoromethylphenyl)aminocarbonyl]piperazine]",inhibition at 10 µM,HAdV5-GFP [1],100%
same,melting point,,134 to 136 °C
same,CC50 at 48 h,[5]; 48 h,70.7 ± 21.4 µM
"CC1CN(C(=O)C(C)(C)C)CCN1C(=O)c1ccc([N+](=O)[O-])cc1 (stereo not shown) [Compound 15, 2-Methyl-1-(4-nitrobenzoyl)-4-pivaloylpiperazine]",inhibition at 10 µM,HAdV5-GFP [1],23.1 ± 3.71%
same,melting point,,143 to 145 °C
"CC(C)(C)OC(=O)N1CCN(C(=O)Nc2ccc(Cl)c(C(F)(F)F)c2)C(c2ccccc2)C1 (stereo not shown) [Compound 53, 4-tert-Butoxycarbonyl-1-[(4-chloro-3-trifluoromethylphenyl)aminocarbonyl]-2-phenylpiperazine]",inhibition at 10 µM,HAdV5-GFP [1],100%
same,CC50 at 48 h,[5]; 48 h,27.5 µM
"COc1ccc(NC(=O)N2CCN(C(=O)OC(C)(C)C)CC2c2ccccc2)cc1 (stereo not shown) [Compound 54, 4-tert-Butoxycarbonyl-1-[(4-methoxyphenyl)aminocarbonyl]-2-phenylpiperazine]",inhibition at 10 µM,HAdV5-GFP [1],78.9 ± 1.57%
same,CC50 at 48 h,[5]; 48 h,133 ± 58.8 µM
"CC1CN(C(=O)c2cc3ccccc3o2)CCN1C(=O)Nc1ccccc1[N+](=O)[O-] (stereo not shown) [Compound 36, 4-(Benzofuran-2-carbonyl)-2-methyl-1-[(2-nitrophenyl)aminocarbonyl]piperazine]",inhibition at 10 µM,HAdV5-GFP [1],91 to 100%
same,CC50 at 48 h,[5],> 200 µM
same,CC50 at 48 h,[5]; 48 h,203 ± 4.09 µM
"O=C(c1cc2ccccc2o1)N1CCN(C(=O)Nc2ccc(F)cc2)C(c2ccccc2)C1 (stereo not shown) [Compound 62, 4-(Benzofuran-2-carbonyl)-1-[(4-fluorophenyl)aminocarbonyl]-2-phenylpiperazine]",inhibition at 10 µM,HAdV5-GFP [1],98.81 ± 0.15%
same,melting point,,122 to 124 °C
same,CC50 at 48 h,[5]; 48 h,12.5 ± 0.79 µM
"CC(C)(C)OC(=O)N1CCN(C(=O)Nc2cc(C(F)(F)F)ccc2Cl)C(c2ccccc2)C1 (stereo not shown) [Compound 52, 4-tert-Butoxycarbonyl-1-[(2-chloro-5-trifluoromethylphenyl)aminocarbonyl]-2-phenylpiperazine]",inhibition at 10 µM,HAdV5-GFP [1],100%
same,CC50 at 48 h,[5]; 48 h,93.36 ± 0.73 µM
"CC1CN(C(=O)OC(C)(C)C)CCN1C(=O)Nc1ccc([N+](=O)[O-])cc1 (stereo not shown) [Compound 13, 4-tert-Butoxycarbonyl-2-methyl-1-[(4-nitrophenyl)aminocarbonyl]piperazine]",inhibition at 10 µM,HAdV5-GFP [1],> 90%
same,CC50 at 48 h,[5]; 48 h,143 ± 3.29 µM
"CC1CN(C(=O)OC(C)(C)C)CCN1C(=O)Nc1ccc(Cl)c(C(F)(F)F)c1 (stereo not shown) [Compound 31, 4-tert-Butoxycarbonyl-1-[(4-chloro-3-trifluoromethylphenyl)aminocarbonyl]-2-methylpiperazine]",inhibition at 10 µM,HAdV5-GFP [1],91 to 100%
same,melting point,,157 to 159 °C
same,CC50 at 48 h,[5]; 48 h,20.8 ± 0.64 µM
"CC1CN(C(=O)c2cc3ccccc3o2)CCN1C(=O)Nc1ccc(C(F)(F)F)cc1 (stereo not shown) [Compound 33, 4-(Benzofuran-2-carbonyl)-2-methyl-1-[(4-trifluoromethylphenyl)aminocarbonyl]piperazine]",inhibition at 10 µM,HAdV5-GFP [1],91 to 100%
same,CC50 at 48 h,[5]; 48 h,82.2 ± 24.3 µM
